Results as given in patent US20170355705A1 (GlaxoSmithKline Intellectual Property (No.2) Limited, priority 2014, published 2017).

Target: T1, SIRT1 (Homo sapiens, UniProt Q96EB6)
T1 sequence (Q96EB6 1-747): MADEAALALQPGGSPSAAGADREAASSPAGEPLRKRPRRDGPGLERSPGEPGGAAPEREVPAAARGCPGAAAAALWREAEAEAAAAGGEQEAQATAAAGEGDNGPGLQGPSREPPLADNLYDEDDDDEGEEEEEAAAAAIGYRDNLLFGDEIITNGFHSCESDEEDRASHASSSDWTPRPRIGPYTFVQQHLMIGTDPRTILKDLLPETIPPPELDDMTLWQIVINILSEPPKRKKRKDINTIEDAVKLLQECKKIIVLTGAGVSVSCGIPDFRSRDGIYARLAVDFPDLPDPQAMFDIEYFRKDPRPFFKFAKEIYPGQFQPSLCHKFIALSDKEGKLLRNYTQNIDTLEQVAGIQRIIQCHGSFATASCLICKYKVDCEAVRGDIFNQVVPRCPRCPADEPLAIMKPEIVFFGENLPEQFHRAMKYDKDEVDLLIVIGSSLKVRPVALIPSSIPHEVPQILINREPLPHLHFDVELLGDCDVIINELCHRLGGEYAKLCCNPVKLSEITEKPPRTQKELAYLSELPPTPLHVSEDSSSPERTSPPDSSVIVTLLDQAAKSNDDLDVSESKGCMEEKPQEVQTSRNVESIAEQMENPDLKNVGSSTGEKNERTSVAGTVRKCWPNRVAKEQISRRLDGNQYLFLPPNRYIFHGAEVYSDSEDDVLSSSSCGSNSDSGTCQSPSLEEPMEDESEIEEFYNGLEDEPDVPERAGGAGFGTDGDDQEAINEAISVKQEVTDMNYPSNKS
Experiment: Trp mass spectrometry assay of SIRT1 activity (EC1.5, percent maximum activation)
Assay type: biochemical
Settings: Trp mass spectrometry assay; for TRP Activity (EC1.5): EC1.5 = concentration giving 150% activation of SIRT1; for TRP MAX RESP (percent maximum fold activation): percent maximum activation of SIRT1
Outline: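 Steps: recombinant SIRT1 (N-His, bacterial) and NAD with p53-derived, norleucine-substituted 5TMR peptide; add compound at several concentrations; incubate 25 min; stop with 10% formic acid; freeze; quantify OAADPR by mass spec against control lacking compound.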

Row | Compound | TRP Activity (EC1.5) | TRP MAX RESP (percent maximum fold activation)
1 | Cl.O=C(Nc1ccnc(OC[C@H](O)CO)c1)N1c2nc(-c3cccc(C(F)(F)F)c3)c(Cl)cc2N2CC[C@H]1C2 [Example 60, (4S)-8-chloro-N-(2-((R)-2,3-dihydroxypropoxy)pyridin-4-yl)-7-(3-(trifluoromethyl)phenyl)-3,4-dihydro-1,4-methanopyrido[2,3-b][1,4]diazepine-5(2H)-carboxamide, Hydrochloride] | A (EC1.5<1 μM) | A (Fold activation ≧150%)
2 | O=C(Nc1ccnc(OC[C@@H](O)CO)c1)N1c2nc(-c3cccc(C(F)(F)F)c3)c(Cl)cc2N2CC[C@H]1C2 [Example 61, (4S)-8-chloro-N-(2-((S)-2,3-dihydroxypropoxy)pyridin-4-yl)-7-(3-(trifluoromethyl)phenyl)-3,4-dihydro-1,4-methanopyrido[2,3-b][1,4]diazepine-5(2H)-carboxamide] | A (EC1.5<1 μM) | A (Fold activation ≧150%)
3 | Cl.O=C(Nc1cncc(OC[C@H](O)CO)n1)N1c2nc(-c3cccc(C(F)(F)F)c3)c(Cl)cc2N2CC[C@H]1C2 [Example 62, (4S)-8-chloro-N-(6-((R)-2,3-dihydroxypropoxy)pyrazin-2-yl)-7-(3-(trifluoromethyl)phenyl)-3,4-dihydro-1,4-methanopyrido[2,3-b][1,4]diazepine-5(2H)-carboxamide, Hydrochloride] | A (EC1.5<1 μM) | A (Fold activation ≧150%)
4 | O=C(Nc1cc(OC[C@@H](O)CO)ccn1)N1c2nc(-c3cccc(C(F)(F)F)c3)c(Cl)cc2N2CC[C@H]1C2 [Example 63, (4S)-8-chloro-N-(4-((S)-2,3-dihydroxypropoxy)pyridin-2-yl)-7-(3-(trifluoromethyl)phenyl)-3,4-dihydro-1,4-methanopyrido[2,3-b][1,4]diazepine-5(2H)-carboxamide] | B (EC1.5 1-25 μM) | A (Fold activation ≧150%)
5 | Cl.O=C(Nc1cc(OC[C@@H](O)CO)ccn1)N1c2nc(-c3cccc(C(F)(F)F)c3)c(Cl)cc2N2CC[C@H]1C2 [Example 64, (4S)-8-chloro-N-(4-((S)-2,3-dihydroxypropoxy)pyridin-2-yl)-7-(3-(trifluoromethyl)phenyl)-3,4-dihydro-1,4-methanopyrido[2,3-b][1,4]diazepine-5(2H)-carboxamide, Hydrochloride] | B (EC1.5 1-25 μM) | A (Fold activation ≧150%)
6 | O=C(Nc1cncc(OC[C@H](O)CO)n1)N1c2nc(-c3cccc(C(F)(F)F)c3)c(Cl)cc2N2CC[C@H]1C2 [Example 65, (4S)-8-chloro-N-(6-((R)-2,3-dihydroxypropoxy)pyrazin-2-yl)-7-(3-(trifluoromethyl)phenyl)-3,4-dihydro-1,4-methanopyrido[2,3-b][1,4]diazepine-5(2H)-carboxamide] | A (EC1.5<1 μM) | A (Fold activation ≧150%)
7 | O=C(Nc1cnc(OC[C@H](O)CO)nc1)N1c2nc(-c3cccc(C(F)(F)F)c3)c(Cl)cc2N2CC[C@H]1C2 [Example 66, (4S)-8-chloro-N-(2-((R)-2,3-dihydroxypropoxy)pyrimidin-5-yl)-7-(3-(trifluoromethyl)phenyl)-3,4-dihydro-1,4-methanopyrido[2,3-b][1,4]diazepine-5(2H)-carboxamide] | B (EC1.5 1-25 μM) | A (Fold activation ≧150%)
8 | O=C(Nc1cccc(OCCCO)n1)N1c2nc(-c3cccc(C(F)(F)F)c3)c(Cl)cc2N2CC[C@H]1C2 [Example 67, (4S)-8-chloro-N-(6-(3-hydroxypropoxy)pyridin-2-yl)-7-(3-(trifluoromethyl)phenyl)-3,4-dihydro-1,4-methanopyrido[2,3-b][1,4]diazepine-5(2H)-carboxamide] | A (EC1.5<1 μM) | A (Fold activation ≧150%)
9 | Cl.O=C(Nc1cccc(OC[C@@H](O)CO)n1)N1c2nc(-c3cccc(C(F)(F)F)c3)c(Cl)cc2N2CC[C@H]1C2 [Example 68, (4S)-8-chloro-N-(6-((S)-2,3-dihydroxypropoxy)pyridin-2-yl)-7-(3-(trifluoromethyl)phenyl)-3,4-dihydro-1,4-methanopyrido[2,3-b][1,4]diazepine-5(2H)-carboxamide Hydrochloride] | A (EC1.5<1 μM) | A (Fold activation ≧150%)
10 | O=C(Nc1cncc(OCCO)n1)N1c2nc(-c3cccc(C(F)(F)F)c3)c(Cl)cc2N2CC[C@H]1C2 [Example 69, (4S)-8-chloro-N-(6-(2-hydroxyethoxy)pyrazin-2-yl)-7-(3-(trifluoromethyl)phenyl)-3,4-dihydro-1,4-methanopyrido[2,3-b][1,4]diazepine-5(2H)-carboxamide] | A (EC1.5<1 μM) | A (Fold activation ≧150%)
11 | O=C(Nc1ccnc(OCCO)n1)N1c2nc(-c3cccc(C(F)(F)F)c3)c(Cl)cc2N2CC[C@H]1C2 [Example 70, (4S)-8-chloro-N-(2-(2-hydroxyethoxy)pyrimidin-4-yl)-7-(3-(trifluoromethyl)phenyl)-3,4-dihydro-1,4-methanopyrido[2,3-b][1,4]diazepine-5(2H)-carboxamide] | A (EC1.5<1 μM) | A (Fold activation ≧150%)
12 | O=C(Nc1cccc(OC[C@@H](O)CO)n1)N1c2nc(-c3cccc(C(F)(F)F)c3)c(Cl)cc2N2CC[C@H]1C2 [Example 71, (4S)-8-chloro-N-(6-((S)-2,3-dihydroxypropoxy)pyridin-2-yl)-7-(3-(trifluoromethyl)phenyl)-3,4-dihydro-1,4-methanopyrido[2,3-b][1,4]diazepine-5(2H)-carboxamide] | A (EC1.5<1 μM) | A (Fold activation ≧150%)
13 | O=C(Nc1ccc(OC[C@@H](O)CO)nc1)N1c2nc(-c3cccc(C(F)(F)F)c3)c(Cl)cc2N2CC[C@H]1C2 [Example 72, (4S)-8-chloro-N-(6-((S)-2,3-dihydroxypropoxy)pyridin-3-yl)-7-(3-(trifluoromethyl)phenyl)-3,4-dihydro-1,4-methanopyrido[2,3-b][1,4]diazepine-5(2H)-carboxamide] | A (EC1.5<1 μM) | A (Fold activation ≧150%)
14 | O=C(Nc1cncc(OCCCO)n1)N1c2nc(-c3cccc(C(F)(F)F)c3)c(Cl)cc2N2CC[C@H]1C2 [Example 73, (4S)-8-chloro-N-(6-(3-hydroxypropoxy)pyrazin-2-yl)-7-(3-(trifluoromethyl)phenyl)-3,4-dihydro-1,4-methanopyrido[2,3-b][1,4]diazepine-5(2H)-carboxamide] | A (EC1.5<1 μM) | A (Fold activation ≧150%)
15 | O=C(Nc1cc(OC[C@@H](O)CO)ncn1)N1c2nc(-c3cccc(C(F)(F)F)c3)c(Cl)cc2N2CC[C@H]1C2 [Example 75, (4S)-8-chloro-N-(6-((S)-2,3-dihydroxypropoxy)pyrimidin-4-yl)-7-(3-(trifluoromethyl)phenyl)-3,4-dihydro-1,4-methanopyrido[2,3-b][1,4]diazepine-5(2H)-carboxamide] | B (EC1.5 1-25 μM) | A (Fold activation ≧150%)
